Consider 1 substance from patent KR20230138688A, “Halenaquinol sulfate를 유효성분으로 포함하는 베타아밀로이드 응집으로 유발되는 질환의 예방 또는 치료용 약학적 조성물” (priority 2022, dated 2023).

The target in experiment [1] is T1, beta-amyloid Aβ42 (베타아밀로이드(Aβ)42) (Homo sapiens, UniProt P05067).
T1 construct: Amyloid β 1-42 (Aβ42) 단백질은 DMSO에 1 mM으로 녹여
Put plainly: Inhibition of beta-amyloid (Aβ42) aggregation, Thioflavin T fluorescence. Type of experiment: biochemical. The conditions noted are these: Aβ42 10 μM; 37 °C, 24 h; ThT 45 μM; 485 nm / 528 nm.

In experiment [2] the target is T2, beta-amyloid Aβ42 aggregates (베타아밀로이드 응집체) (Homo sapiens, UniProt P05067).
T2 construct: Amyloid β 1-42 (Aβ42) 단백질은 DMSO에 1 mM으로 녹여
Put plainly: Disaggregation of preformed beta-amyloid (Aβ42) aggregates, Thioflavin T fluorescence. The conditions noted are these: Aβ42 pre-incubated 24 h, then 24 h with compound at 37 °C; Aβ42 10 μM; ThT 45 μM. The format is biochemical.

Experiment [3] addresses Acetylcholinesterase (AChE) (Electrophorus electricus, UniProt O42275). Put plainly: Acetylcholinesterase (AChE) inhibition, Ellman method. The format is biochemical. The conditions noted are these: acetylthiocholine substrate, DTNB, 405 nm, pH 8.2. For orientation: Ellman's reagent forms a yellow product with free thiols.
Experiment [4] has as its system inhibition of synaptic plasticity (LTP) by beta-amyloid (베타아밀로이드에 의한 시냅스 가소성(LTP) 억제). Put plainly: Improvement of beta-amyloid-induced inhibition of synaptic plasticity (LTP), electrophysiology in hippocampal slices. The conditions noted are these: ICR mouse hippocampal slices; halenaquinol sulfate 10 μM 30 min, then with oligomeric beta-amyloid 1 μM for 2 h; HFS.

Sequence of Acetylcholinesterase (AChE) (O42275 whole entry): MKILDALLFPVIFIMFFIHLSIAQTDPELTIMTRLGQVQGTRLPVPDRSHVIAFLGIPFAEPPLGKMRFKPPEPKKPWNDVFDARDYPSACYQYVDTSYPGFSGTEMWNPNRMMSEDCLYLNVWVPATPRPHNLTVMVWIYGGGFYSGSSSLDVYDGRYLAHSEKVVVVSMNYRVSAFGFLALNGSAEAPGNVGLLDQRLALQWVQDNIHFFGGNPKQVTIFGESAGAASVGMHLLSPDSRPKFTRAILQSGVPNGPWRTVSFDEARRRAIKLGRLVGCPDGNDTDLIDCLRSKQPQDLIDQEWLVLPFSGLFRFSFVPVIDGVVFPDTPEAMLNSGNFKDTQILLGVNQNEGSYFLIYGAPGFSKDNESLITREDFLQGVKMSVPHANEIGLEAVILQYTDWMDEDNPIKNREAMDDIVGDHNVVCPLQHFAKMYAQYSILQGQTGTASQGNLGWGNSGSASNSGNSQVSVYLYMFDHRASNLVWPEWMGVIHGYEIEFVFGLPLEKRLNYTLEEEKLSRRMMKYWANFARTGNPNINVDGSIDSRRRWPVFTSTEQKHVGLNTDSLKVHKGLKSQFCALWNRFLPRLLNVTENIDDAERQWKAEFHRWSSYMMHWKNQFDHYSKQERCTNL
T2 sequence (P05067 672-713): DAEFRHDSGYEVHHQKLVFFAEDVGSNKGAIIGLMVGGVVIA
T1 sequence (P05067 672-713): as above

Take Halenaquinol sulfate: the “inhibitory activity against beta-amyloid aggregation” value in experiment [1] is recorded as “농도 의존적으로 베타아밀로이드(10 μM)의 응집에 대해 저해활성”. Further, the “disaggregation of already aggregated beta-amyloid” value in experiment [2] is “농도 의존적으로 이미 응집된 베타아밀로이드 응집체를 분해함”. In experiment [3], the IC50 (in general, the concentration needed to halve the response being measured) worked out at 17.9 µM and the “inhibition of acetylcholinesterase activity” value is reported as “농도의존적으로 acetylcholinesterase 활성을 저해”. In addition, in experiment [4], the “suppression of the effect of oligomeric beta-amyloid on LTP” value is listed as “베타아밀로이드의 효과를 유의적으로 억제”.
